Laboratory results: PMC10226041, “Discovery of Ruthenium(II) Metallocompound and Olaparib Synergy for Cancer Combination Therapy” (Journal of Medicinal Chemistry, 2023)
Counter-ions that a name gives are not always drawn.

Assays:
[1] = octanol/water partition coefficient; source not given; cited from earlier work
MDA-MB-231 cells [2] = assay: MTT cell viability assay, MDA-MB-231 cells; type: cell-based, human; settings: for IC50 / fold shift = IC50 (−OLAP)/IC50 (+OLAP): MDA-MB-231, 72 h; for IC50: MTT, read-out: IC50, –OLAP (compound alone); for fold shift = IC50 (−OLAP)/IC50 (+OLAP): Olaparib 10 μM
Experimental: (§1) Following treatment, solutions were removed, thiazolyl blue tetrazolium bromide (MTT, 0.5 mg/mL) reagent was added to the cells, and plates were incubated for 4 h. The reduced purple formazan crystals were solubilized with 100 μL of DMSO, and the absorbance at 570 nm (620 nm as reference wavelength) was measured using a microplate reader. The average in percent reduction of cell viability was expressed relative to untreated control cells. The combinatorial effect was evaluated by the generation of the compound dose–response curve and a shift of the IC50 value in the presence or absence of Olaparib (graphed and calculated using GraphPad Prism software).

MDA-MB-231 cells [3] = assay: Drug interaction analysis (Chou and Talalay combination index) with Olaparib from MTT data; type: cell-based, human; settings: MDA-MB-231, Olaparib 10 μM, result in words
Experimental: as §1
Dose–effect curves for single agents and their combinations were generated from the MTT assay data, and the combination index (CI) values were calculated using CalcuSyn and CompuSyn software (Biosoft, Cambridge, UK) as established by Chou and Talalay.[43] CI < 0.9 indicates synergism, CI = 0.9–1.0 indicates additive, and CI > 1 indicates antagonism. GraphPad Prism Software was used to generate a 3-color scale based on CI values obtained, where synergism is represented by green, additive by yellow, and antagonism by red. The colors of each CI value were interpolated in between these constraints accordingly.

[4] = test system: wild-type zebrafish (Danio rerio) embryos; settings: in vivo
Experimental: Wild-type zebrafish embryos were obtained from breeding facilities at Danio Assay Laboratories Sdn.Bhd. (Universiti Putra Malaysia). […] Danio-SprintM embryo media were used as a control. Survival and hatching rates were observed under a microscope attached with a digital camera and imaged at 24, 48, 72, and 96 hpf. […] Four lethal endpoints were evaluated including coagulated embryos, lack of somite formation, non-detachment of the tail, and lack of heartbeat. All these characteristics were recorded every 24 hpf, except the heartbeat, which is visible after 48 hpf.

MCF10A cells = assay: MTT cell viability assay, MCF10A normal breast cells; type: cell-based; settings: Homo sapiens, MCF-10A, 72 h, single agent, read-out: IC50 MCF10A, –OLAP (single agent)
Experimental: as §1, with “Cells were seeded at 5 × 10^3 cells/well for MCF7 cells and 1 × 10^4 cells/well for MDA-MB-231 and MCF10A cells, respectively, in 96-well plates, allowed to adhere for 24 h, and treated as described in the main text. Following” for “Following”

MCF7 cells [5] = assay: MTT cell viability assay, MCF7 cells; type: cell-based, human; settings: for IC50: Homo sapiens, MCF7, 72 h, MTT, single agent, read-out: IC50 MCF7, –OLAP (single agent)
Experimental: as §1, with “Cells were seeded at 5 × 10^3 cells/well for MCF7 cells and 1 × 10^4 cells/well for MDA-MB-231 and MCF10A cells, respectively, in 96-well plates, allowed to adhere for 24 h, and treated as described in the main text. Following” for “Following”

[6] = test system: MDA-MB-231 3D tumor spheroids; assay: Spheroid growth inhibition, MDA-MB-231 spheroids; type: cell-based, human; settings: compound 1 μM in combination with Olaparib 10 μM
Experimental: (§2) Spheroids were grown as described initially. […] Spheroids were treated with the identified combinations and single drugs alone for 72 h. Every other day thereafter, 50% of the treatment-containing medium was replaced. Spheroids were imaged every three days for a period of 12 days using a microscope attached to a digital camera. The structural integrity of spheroids following treatments was observed, and the volume was measured as initially described.

MDA-MB-231R cells = assay: Clonogenic survival assay, Olaparib-resistant MDA-MB-231R cells; type: cell-based, human
Experimental: The Olaparib-resistant MDA-MB-231 cell line (MDA-MB-231R) was developed from the parental MDA-MB-231 cell line by long-term drug exposure (∼8 months, 10–100 μM Olaparib) in a similar manner described by Kim et al.[45] MDA-MB-231 cells were seeded at a density of 1.5 × 10^5 cells in a 25 cm^2 flask and allowed to adhere for 24 h. Cells were treated with a starting Olaparib concentration of 10 μM, and treatments were refreshed every 3 days. After each week, the confluency was assessed: if confluency is <50%, the treatment was stopped; if confluency is at 50–70%, the treatment was maintained; and if confluency is over 70%, a portion of the cells was frozen. When the cells adapted to a new drug concentration, cells were reseeded at a density of 1.5 × 10^5 cells in a new 25 cm^2 flask and allowed to adhere before the next exposure to the increased concentration of Olaparib. This procedure was repeated to achieve a final concentration of Olaparib of 100 μM. Following this, MDA-MB-231R cells were maintained in a low concentration of Olaparib (10 μM) to preserve resistance. […]
Cells were seeded at 1 × 10^3 cells/well in 6-well plates, allowed to adhere for 24 h, and treated as described in the main text. […] Individual colonies were counted using ImageJ software, and the survival fraction was determined (normalized to controls).

MCF7 3D tumor spheroids = assay: Spheroid growth inhibition, MCF7 spheroids; type: cell-based, human; settings: compound 1 μM in combination with Olaparib 10 μM
Experimental: as §2

MDA-MB-231 cells [7] = settings: 72 h, 10 µM
Experimental: Cells were seeded at 3 × 10^5 cells/well in 6-well plates, allowed to adhere for 24 h, and treated as described in the main text. After treatment, cells were trypsinized and washed with 1× PBS twice. This was followed by the addition of 500 μL of 1× binding buffer and 5 μL of Annexin V-FITC (Invitrogen). The cell-containing mixture was incubated for 20 min at RT. A total of 5 μL of PI (20 μg/mL) was added prior to flow cytometric analysis using a flow cytometer, and results were analyzed using NovoExpress software. For each sample, a minimum of 10,000 cells were counted.

MCF7 cells [8] = assay: Clonogenic survival assay, MCF7 cells; type: cell-based; settings: Homo sapiens, 72 h treatment, read-out: IC50 values of OLAP, – Compound
Experimental: (§3) Cells were seeded at 1 × 10^3 cells/well in 6-well plates, allowed to adhere for 24 h, and treated as described in the main text. After treatment, solutions were removed, and cells were cultured in compound-free medium for 7–10 days to allow colony formation. Cells were then washed (1× PBS, twice), fixed (ice-cold 100% methanol, 15–20 min, 4 °C), and stained (0.5% crystal violet solution, 20 min). The staining solution was washed with water, and images were photographed with a digital camera. Individual colonies were counted using ImageJ software, and the survival fraction was determined (normalized to controls).

MDA-MB-231 cells [9] = assay: Clonogenic survival assay, MDA-MB-231 cells; type: cell-based; settings: Homo sapiens; MDA-MB-231, clonogenic, 72 h treatment; read-out: IC50 values of OLAP, – Compound
Experimental: as §3

[10] = test system: TNBC and lung cancer cells; design: method as in PMID 31898884, PMID 36702871; settings: sub-cytotoxic concentrations of Ru-PIP; cited from earlier work

CNCc1ccc(-c2cc(-c3nc(-c4ccc(S(=O)(=O)C(C)C)cc4)cnc3N)on2)cc1 [Berzosertib, reference compound]
Log P [1]: 3.16
IC50 (MDA-MB-231 cells [2]; Homo sapiens, single agent): 0.46 ± 0.01 µM
fold shift = IC50 (−OLAP)/IC50 (+OLAP) (MDA-MB-231 cells [2]): 1.7

C[C@@H]1COCCN1c1cc(C2([S@](C)(=N)=O)CC2)nc(-c2cc[nH]c3nccc2-3)n1 [Ceralasertib, reference compound]
Log P [1]: 1.91
IC50 (MDA-MB-231 cells [2]; Homo sapiens, single agent): 4.4 ± 0.4 µM
fold shift = IC50 (−OLAP)/IC50 (+OLAP) (MDA-MB-231 cells [2]): 0.9

[Ru+2].c1ccc(-c2ccccn2)nc1.c1ccc(-c2ccccn2)nc1.c1ccc(-c2nc3c4cccnc4c4ncccc4c3[nH]2)cc1 [Compound 1, [Ru(bpy)2(PIP)]^2+]
IC50 (MDA-MB-231 cells [2]; single agent): > 100 µM
fold shift = IC50 (−OLAP)/IC50 (+OLAP) (MDA-MB-231 cells [2]): >1.3

c1ccc(-c2nc3c4ccc[n+]5c4c4c(ccc[n+]4[Ru-4]546([n+]5cccc7ccc8ccc[n+]4c8c75)[n+]4cccc5ccc7ccc[n+]6c7c54)c3[nH]2)cc1 [Compound 3, [Ru(phen)2(PIP)]^2+]
IC50 (MDA-MB-231 cells [2]; single agent): 29.2 ± 3.7 µM
fold shift = IC50 (−OLAP)/IC50 (+OLAP) (MDA-MB-231 cells [2]): 3.7
Synergy with Olaparib (CI scores of less than 0.9 considered synergistic) (MDA-MB-231 cells [3]): additive relationship with Olaparib

Oc1ccc(-c2nc3c4ccc[n+]5c4c4c(ccc[n+]4[Ru-4]546([n+]5cccc7ccc8ccc[n+]4c8c75)[n+]4cccc5ccc7ccc[n+]6c7c54)c3[nH]2)cc1 [Compound 4, [Ru(phen)2(H-PIP)]^2+]
IC50 (MDA-MB-231 cells [2]; single agent): 11.6 ± 3.2 µM
fold shift = IC50 (−OLAP)/IC50 (+OLAP) (MDA-MB-231 cells [2]): 6.8
Synergy with Olaparib (CI scores of less than 0.9 considered synergistic) (MDA-MB-231 cells [3]): additive relationship with Olaparib

Cc1cc(C)c2nc3c4ccc[n+]5c4c4c(ccc[n+]4[Ru-4]546([n+]5ccccc5-c5cccc[n+]54)[n+]4ccccc4-c4cccc[n+]46)c3nc2c1 [Compound 5, [Ru(bpy)2(dmdppz)]^2+]
IC50 (MDA-MB-231 cells [2]; single agent): 75.1 ± 12.2 µM
fold shift = IC50 (−OLAP)/IC50 (+OLAP) (MDA-MB-231 cells [2]): <0.8

Cc1cc(C)c2nc3c4ccc[n+]5c4c4c(ccc[n+]4[Ru-4]546([n+]5cc(C)ccc5-c5ccc(C)c[n+]54)[n+]4cc(C)ccc4-c4ccc(C)c[n+]46)c3nc2c1 [Compound 6, [Ru(5,5′dmb)2(dmdppz)]^2+]
IC50 (MDA-MB-231 cells [2]; single agent): 87.4 ± 2.3 µM
fold shift = IC50 (−OLAP)/IC50 (+OLAP) (MDA-MB-231 cells [2]): 5.0

Cc1cc[n+]2c(c1)-c1cc(C)cc[n+]1[Ru-4]213([n+]2ccc(C)cc2-c2cc(C)cc[n+]21)[n+]1cccc2c4nc5cc(C)cc(C)c5nc4c4ccc[n+]3c4c21 [Compound 7, [Ru(4,4′dmb)2(dmdppz)]^2+]
IC50 (MDA-MB-231 cells [2]; single agent): 34.3 ± 0.5 µM
fold shift = IC50 (−OLAP)/IC50 (+OLAP) (MDA-MB-231 cells [2]): 2.3
Synergy with Olaparib (CI scores of less than 0.9 considered synergistic) (MDA-MB-231 cells [3]): additive relationship with Olaparib

COc1cc(/C=C/C(=O)CC(=O)/C=C/c2ccc(O)c(OC)c2)ccc1O [Curcumin, reference compound]
hatching rate [4]: neither 10 nor Curcumin impacted the hatching rate significantly
IC50 (MCF10A cells): 37.4 ± 6 µM
Log P [1]: 4.12
IC50 (MCF7 cells [5]): 22.5 ± 4.1 µM
day of complete disintegration of spheroids [6]: 6 days
inhibition of colony formation (MDA-MB-231R cells; MDA-MB-231R, compound 1 μM alongside Olaparib 0.1–100 μM, 72 h): retains the ability to inhibit colony formation in a similar manner to the parental MDA-MB-231 cells
day of complete disintegration of spheroids (MCF7 3D tumor spheroids): 9 days
IC50 (MDA-MB-231 cells [2]; Homo sapiens, single agent): 25.1 ± 2.4 µM
Synergy with Olaparib (CI scores of less than 0.9 considered synergistic) (MDA-MB-231 cells [3]): synergistic over most of the tested concentrations

O=c1[nH]cc(F)c(=O)[nH]1 [Fluorouracil, reference compound]
IC50 (MDA-MB-231 cells [2]; Homo sapiens, single agent): 12.1 ± 3 µM

Cc1nc2c(O)cccc2c(=O)[nH]1 [NU1025]
Log P [1]: 0.47

O=C(c1cc(Cc2n[nH]c(=O)c3ccccc23)ccc1F)N1CCN(C(=O)C2CC2)CC1 [Olaparib]
percentage of cells in quadrant Q3-1 (MDA-MB-231 cells [7]): 0.34%
percentage of cells in quadrant Q3-2 (apoptotic) (MDA-MB-231 cells [7]): 1.44%
percentage of cells in quadrant Q3-3 (MDA-MB-231 cells [7]): 82.66%
percentage of cells in quadrant Q3-4 (apoptotic) (MDA-MB-231 cells [7]): 15.56%
pericardial edema (PE) ([4]; 96 hpf, 25 mg/L): 45.8% ± 17.7
spinal deformity (SD) ([4]; 96 hpf, 25 mg/L): 75.0% ± 23.6
yolk sac edema (YSE) ([4]; 96 hpf, 25 mg/L): 45.8% ± 29.5
IC50 (MCF7 cells [8]): 2.72 ± 0.45 µM
IC50 (MCF10A cells): > 100 µM
IC50 (MDA-MB-231 cells [9]): > 10 µM
SI MCF7 (IC50 MCF10A/IC50 cancer cell line), single agent (MCF7 cells [5]; 72 h): >1.4
IC50 (MCF7 cells [5]): 69.6 ± 6.3 µM
level of resistance of MDA-MB-231R compared to parental MDA-MB-231 cells (MDA-MB-231R cells; clonogenic survival assay): 28 fold
IC50 (MDA-MB-231 cells [2]; Homo sapiens, single agent): 80.9 ± 15 µM
SI MDA-MB-231 (IC50 MCF10A/IC50 cancer cell line), single agent (MDA-MB-231 cells [2]; single agent, 72 h): >1.2

O=c1c(O)c(-c2ccc(O)c(O)c2)oc2cc(O)cc(O)c12 [Quercetin, reference compound]
IC50 (MDA-MB-231 cells [2]; Homo sapiens, single agent): > 100 µM

[Ru+2].c1ccc(-c2nc3c4cccnc4c4ncccc4c3[nH]2)cc1.c1ccc2nc3c4cccnc4c4ncccc4c3nc2c1.c1ccc2nc3c4cccnc4c4ncccc4c3nc2c1 [Ru-PIP, [Ru(dppz)2(PIP)]^2+]
increase in Olaparib potency [10]: > 300 fold

N.N.[Cl][Pt][Cl] [cisplatin, reference compound]
IC50 (MDA-MB-231 cells [2]; single agent): 35.3 ± 5.5 µM

Nc1ccn([C@@H]2O[C@H](CO)[C@@H](O)C2(F)F)c(=O)n1 [gemcitabine hydrochloride, reference compound]
IC50 (MDA-MB-231 cells [2]; Homo sapiens, single agent): 1.6 ± 0.8 µM
fold shift = IC50 (−OLAP)/IC50 (+OLAP) (MDA-MB-231 cells [2]): 2.7
